Results on five compounds are retold here after ChEMBL document CHEMBL1681750, “Cofactor-type inhibitors of inosine monophosphate dehydrogenase via modular approach: targeting the pyrophosphate binding sub-domain” (Bioorg Med Chem, 2011).

Broadly, the pIC50 is the IC50 on a negative log10 scale, so that one unit is a factor of ten. Higher therefore signals a small IC50. Broadly, the pKi is the negative decadic logarithm of the Ki, by convention in mol/L.

Test [1] concerns K562. Briefly: Antiproliferative activity against human K562 cells after 72 hrs by MTS assay. It counts as functional, cell-based. The following applies: K562, 72 h.
The target of test [2] is Inosine-5'-monophosphate dehydrogenase 1 (Homo sapiens, UniProt P20839). The experiment in a line: Inhibition of human IMPDH1 by Spectrophotometry.
Sequence of Inosine-5'-monophosphate dehydrogenase 1 (P20839 whole entry): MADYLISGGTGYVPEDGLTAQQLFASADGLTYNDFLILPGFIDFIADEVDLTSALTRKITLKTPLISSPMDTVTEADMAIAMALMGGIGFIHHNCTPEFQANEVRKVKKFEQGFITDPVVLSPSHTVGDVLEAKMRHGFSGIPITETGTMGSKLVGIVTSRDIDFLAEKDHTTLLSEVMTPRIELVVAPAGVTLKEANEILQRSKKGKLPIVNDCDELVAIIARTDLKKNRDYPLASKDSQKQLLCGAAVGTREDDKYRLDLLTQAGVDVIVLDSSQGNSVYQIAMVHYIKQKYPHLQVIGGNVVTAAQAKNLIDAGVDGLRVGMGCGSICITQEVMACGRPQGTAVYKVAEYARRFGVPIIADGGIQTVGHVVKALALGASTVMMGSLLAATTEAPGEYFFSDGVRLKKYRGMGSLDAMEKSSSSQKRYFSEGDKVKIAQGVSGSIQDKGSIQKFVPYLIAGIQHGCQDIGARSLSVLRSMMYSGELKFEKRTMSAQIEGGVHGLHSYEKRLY

Structures are written as SMILES. pIC50, pKi: −log10 of the molar value.

Take `NC(=O)c1csc([C@@H]2O[C@H](CNS(=O)(=O)CS(=O)(=O)NC[C@@H]3O[C@H](n4cnc5c(N)ncnc54)[C@@H](O)[C@H]3O)[C@@H](O)[C@H]2O)n1`: the pIC50 in test [1] is < 4.00. For the same compound, in test [2], the pKi was 4.63. For `NC(=O)c1csc([C@@H]2O[C@H](COP(=O)(O)CC(=O)NC[C@@H]3O[C@H](n4cnc5c(N)ncnc54)[C@@H](O)[C@H]3O)[C@@H](O)[C@H]2O)n1` the same measures were < 4.00 and 4.85. On to `COc1c(C)c2c(c(O)c1CCOP(=O)(O)CCP(=O)(O)O)C(=O)OC2` [MYCOPHENOLIC ETHYLENEBIS], for which the pIC50 in test [1] was < 4.00. The pKi in test [2] is 5.26. Turning to `CCc1nc(N)c2ncn([C@H]3O[C@@H](COP(=O)(O)OP(=O)(O)OC[C@H]4O[C@@H](c5nc(C(N)=O)cs5)[C@H](O)[C@@H]4O)[C@H](O)[C@@H]3O)c2n1`, the pKi in test [2] was 9.00. In turn, `CCc1nc(N)c2ncn([C@H]3O[C@@H](COP(=O)(O)C(F)(F)P(=O)(O)OC[C@H]4O[C@@H](c5nc(C(N)=O)cs5)[C@H](O)[C@@H]4O)[C@H](O)[C@@H]3O)c2n1` gave a pIC50 in test [1] of 5.33. In addition, the negative-log Ki (pKi) in test [2] was 7.89.
